In patent US11160790B2, “Method of inhibiting Cryptococcus growth using eltrombopag” (priority 2019, dated 2021):

Key:
[1] = tested on: C. neoformans H99; assay: Checkerboard titration assay; type: cell-based, Cryptococcus neoformans; conditions: 30° C., 48 hours
Experimental: (§1) Amphotericin B plus 5-flucytosine or fluconazole are combinations often used to treat cryptococcal meningitis. To investigate the synergy between eltrombopag and existing antifungal drugs or other drugs, a checkerboard titration assay was performed on Cryptococcus. Briefly, C. neoformans […] and C. deuterogattii […] cells were cultured overnight at 30° C. and then washed twice with double-distilled water. The cells were diluted to 10^3 cfu/mL with RPMI 1640 medium, and 100 μL of the cell suspension was added to each well of a 96-well polystyrene plate. […] After incubation at 30° C. for 48 hours, the growth of cells under different treatments was assessed by measuring the light absorbance at 600 nm (OD600). This assay allows the determination of fractional inhibitory concentration index (FICI): (MICcombined of drug A/MICalone of drug A)+(MICcombined of drug B/MICalone of drug B). After the checkerboard titration assay, the cells (3 μL) in the 96-well plate were transferred to drug-free YPD agar plates. After incubation at 30° C. for 48 hours, the agar plates were photographed and assessed for cell viability.

[2] = tested on: C. deuterogattii R265; assay: Checkerboard titration assay; type: cell-based, Cryptococcus deuterogattii; conditions: 30° C., 48 hours
Experimental: as §1

[3] = tested on: C. neoformans H99; assay: XTT-reduction assay of biofilm metabolic activity; type: cell-based, Cryptococcus neoformans; conditions: at respective MICs (1 mg/L amphotericin B, 4 mg/L fluconazole), 24 hours
Experimental: Cryptococcus biofilms, which are composed of Cryptococcus cells and extracellular matrix, enhance the tolerance of Cryptococcus to antifungal agents (such as amphotericin B) and host defense mechanisms. To assess whether eltrombopag impacts biofilm formation in Cryptococcus, an XTT-reduction assay was used to measure the metabolic activity of C. neoformans cells treated with eltrombopag at 37° C. Briefly, C. neoformans […] cells were cultured in YPD medium at 30° C. overnight. The cells were washed twice with phosphate buffered saline (PBS) and resuspended in RPMI 1640 medium with or without eltrombopag at the indicated concentrations. The cell suspension (0.0005 OD600/mL) was added to a 96-well polystyrene plate and incubated at 37° C. for 24 or 48 hours. […] After incubation, the cells were washed three times with PBS and subjected to XTT reduction assay to quantify formazan formation by measuring the light absorbance at 492 nm. The experiments were performed in triplicate, and the results were presented as mean±standard deviation. Statistical significance for the data sets was determined using a two-tailed t test.

Row | SMILES | MICalone [1] [mg/L] | MICcombined of AMB ([1]; AMB in combination with ETP) [mg/L] | MICalone [2] [mg/L] | MICcombined of AMB ([2]; AMB in combination with ETP) [mg/L] | reducing the metabolic activity of C. neoformans biofilms, compared with eltrombopag [3] | MICcombined of FK506 ([1]; FK506 in combination with ETP) [mg/L] | MICcombined of FK506 ([2]; FK506 in combination with ETP) [mg/L] | MICcombined of FLC ([1]; FLC in combination with ETP) [mg/L] | MICcombined of FLC ([2]; FLC in combination with ETP) [mg/L]
1 | C[C@@H]1[C@H](O)[C@@H](C)/C=C/C=C/C=C/C=C/C=C/C=C/C=C/[C@H](O[C@@H]2O[C@H](C)[C@@H](O)[C@H](N)[C@@H]2O)C[C@@H]2O[C@](O)(C[C@@H](O)C[C@@H](O)[C@H](O)CC[C@@H](O)C[C@@H](O)CC(=O)O[C@H]1C)C[C@H](O)[C@H]2C(=O)O [AMB, amphotericin B] | 1 | 0.5 | 1 | 1 | less effective than eltrombopag |  |  |  | 
2 | C=CC[C@@H]1/C=C(\C)C[C@H](C)C[C@H](OC)[C@H]2O[C@@](O)(C(=O)C(=O)N3CCCC[C@H]3C(=O)O[C@H](/C(C)=C/[C@@H]3CC[C@@H](O)[C@H](OC)C3)[C@H](C)[C@@H](O)CC1=O)[C@H](C)C[C@@H]2OC [FK506, tacrolimus] | >16 |  | >16 |  |  | 0.25 | 0.25 |  | 
3 | OC(Cn1cncn1)(Cn1cncn1)c1ccc(F)cc1F [FLC, fluconazole] | 4 |  | 16 |  | less effective than eltrombopag |  |  | 8 | 16
